Source: patent publication US11827624B2, “Covalent immune recruiter compounds for immune cell recognition and associated uses” (McMaster University, priority 2020, dated 2023)

Columns and labels:
HEK PSMA+cells = assay: Flow cytometry antibody recruitment to the target cell surface; type: cell-based, human
Protocol: CIR 3 or ARM 11 (640 nM) was incubated with 320 nM antibody (mmAb or mAb) at room temperature overnight. After overnight incubation, a dilution series (1:2, 1:3, 1:3, 1:3) was conducted using each condition stock which was then equilibrated for 90 minutes prior to addition to the assay well plate. HEK293 cells transfected with PSMA, were washed 3× and placed in a flow buffer containing 4% FBS, 0.5 mM EDTA/EGTA, 0.1% Sodium Azide, at a concentration of 2×10^6 Cells/mL. 75 μL of cells were added (150 000 Cells per sample) and kept on ice. 25 μL of antibody+CIR or antibody+ARM conditions prepared above were added to the target cells (experimental antibody concentrations: 80 nM, 40 nM, 13.3 nM, 4.4 nM, 1.5 nM). For the DNP Control, 4.5 mM was added to antibody for 5 minutes, then the CIR/ARM was added, and the solution incubated overnight. […]
Elimination equilibrium of the ARM:antibody through a covalent linkage to CIRs, and its impact on total antibody recruitment to target cells, at different therapeutically relevant antibody concentrations was next evaluated. […] This leads to increases in the mean fluorescence intensity (MFI) of associated cell populations, detectable in flow cytometry.
Antibody recruitment to the cell surface is proportional to the mean fluorescence intensity (MFI) of cell populations, bound to mmAb antibody complexes comprising CIR 3 or ARM 11. […]

[1] = test system: monoclonal human anti-DNP antibody (mAb); assay: BLI covalent labeling kinetics assay on IgG Fc capture probes, mAb; type: binding
Protocol: Kinetic assays to characterize the second order rate constant (kinact/KI) describing the CIR+Ab labeling reaction involved incubating increasing concentrations of CIR 3 or CIR 5 with a fixed concentration (75 nM) of anti-DNP mmAb in solution, for different periods of time. PSMA binding to CIR-Ab complexes increases the total mass associated with the probe surface leading to signal increases (nm shift). CIR 3 (500 nM) and 75 nM of either mmAb or mAb (AcroBiosystems Catalog #DNP-M2) was reacted in 1× Kinetics Buffer (ForteBio) for four hours prior to the experiment. IgG Fc capture (ProG) probes from ForteBio were placed in 1× Kinetics Buffer for 20 minutes prior to the experiment for wetting. The experiment was conducted using an Octet Red96 (ForteBio), where the acquisition rate was set to 5 Hz and the temperature was held at 25° C. The plate shaker setting was 1000 RPM. A volume of 250 μL of each solution was loaded onto a black flat-bottom 96-well plate (Grenier). The experiment began by placing the ProG probes in 1×Kinetics Buffer for four minutes to establish a baseline. Next, the probes were placed into the CIR 3 and anti-DNP antibody reaction mixture to load the covalent complex (CIR-Ab) onto the probe. Next, the probes were placed in a solution of 5 mM DNP-glycine competitor in 1×Kinetics Buffer in order to disrupt any non-covalent or non-specific binding. The baseline was re-established by then placing the probes in 1× Kinetics Buffer for 0.5 minutes. To measure PSMA association, the probes were placed in a solution of 500 nM human PSMA protein in 1× Kinetics Buffer for 10 minutes. The probes were then placed in 1×Kinetics Buffer for 10 minutes to measure dissociation. The raw nm shift signal for the association and dissociation step obtained by the Octet Red96 was first baselined to the beginning of the association step (t=0 second) by subtracting the association signal at t=0 from the measured signal at each time point. The Kd was determined by fitting both the association and dissociation curves using the ‘association then dissociation’ binding model in GraphPad Prism 8. The experiment was repeated once for a total of two replicates.
The specific labelling of an antibody by a CIR occurs via a two-step mechanism. In the first step, the CIR binds to the antibody via its ABD and forms a reversible complex. […] This second order rate constant was determined by monitoring covalent product (CIR-Ab) formation as a function of time via BLI using IgG Fc capture probes (note: a non-specific labeling reaction occurs independent of binding to the DNP binding site with any biological nucleophile and follows second order kinetics without saturation). […]

SMILES: O=C(O)CC[C@H](NC(=O)N[C@@H](CCCCNC(=O)NCCOCCOCCOCCOCCOCCOCCOCCOC(=O)n1cnc(CCNC(=O)CNc2ccc([N+](=O)[O-])cc2[N+](=O)[O-])c1)C(=O)O)C(=O)O [CIR 3]
- total antibody recruitment to the target cell surface (MFI) (HEK PSMA+cells; higher antibody concentrations (40-80 nM)): comparable efficiencies
- total antibody recruitment to the target cell surface (MFI) (HEK PSMA+cells; sub-saturating mAb or mmAb (<40 nM), 37° C.): more total antibody recruitment to the target cell surface compared to ARM 11
- covalent labeling of anti-DNP mAb ([1]; 75 nM mAb, 500 nM CIR 3): selectively covalently modify mAb albeit with modestly slower kinetics
- Kinact/Kl ^c ([1]; mAb): 1730 ± 1040 M⁻¹ s⁻¹
- Kinact^c ([1]; mAb, 75 nM antibody): 2.0 × 10^−4 ± 0 s^−1
- Ki ([1]; mAb, read-out: Kl ^c): 160 ± 70 nM
